Assay [1] has as its system L1210. Briefly: Inhibition of transport of [3H]spermidine in L1210 cells. It is filed as functional, cell-based, Mus musculus.
Assay [2] has as its system L1210. Briefly: Effect of compound on the level of putrescine in polyamine pools of L1210 cells after 48 hr of treatment with 100 uM of dose. It is filed as functional, Mus musculus.
Assay [3] concerns L1210. The experiment in a line: Effect of compound on the level of putrescine in polyamine pools of L1210 cells after 48 hr of treatment with 10 uM of dose. Format: functional, Mus musculus.
For assay [4], the system named is L1210. Briefly: Effect of compound on the level of spermine in polyamine pools of L1210 cells after 48 hr of treatment with 100 uM of dose. It is filed as functional, Mus musculus.
A short description of assay [5]: Number of CD-1 mice died after administration of 325 mg/kg dose of compound; 5/10. It is filed as functional, Mus musculus.
The subject of assay [6] is L1210. The experiment in a line: Amount of compound present per 10e6 L1210 cells after 48 hr of treatment with 10 uM of dose. It is filed as functional, cell-based. The conditions noted are these: Mus musculus.
Assay [7] has as its system L1210. The experiment in a line: Effect of compound on the level of spermidine in polyamine pools of L1210 cells after 48 hr of treatment with 10 uM of dose. Format: functional, Mus musculus.
Assay [8] has as its system L1210. The experiment in a line: Amount of compound present per 10e6 L1210 cells after 48 hr of treatment with 100 uM of dose. It is filed as functional, cell-based. The note with it: Mus musculus.
In assay [9] the target is T1, Ornithine decarboxylase (Mus musculus) (UniProt P00860).
T1 sequence (whole entry): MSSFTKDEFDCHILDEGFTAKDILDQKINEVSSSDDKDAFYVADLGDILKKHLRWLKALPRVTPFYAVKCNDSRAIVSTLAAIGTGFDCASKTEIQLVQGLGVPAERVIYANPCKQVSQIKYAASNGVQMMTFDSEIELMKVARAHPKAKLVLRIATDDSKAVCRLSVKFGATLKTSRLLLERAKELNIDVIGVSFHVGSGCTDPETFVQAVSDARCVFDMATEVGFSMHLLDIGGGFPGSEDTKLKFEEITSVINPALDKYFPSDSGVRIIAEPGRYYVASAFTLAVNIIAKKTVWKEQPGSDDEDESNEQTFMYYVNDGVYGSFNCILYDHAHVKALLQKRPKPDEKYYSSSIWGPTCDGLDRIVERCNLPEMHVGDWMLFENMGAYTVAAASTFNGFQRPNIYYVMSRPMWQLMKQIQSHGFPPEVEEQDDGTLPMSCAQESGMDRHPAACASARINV
The experiment in a line: Percent of ornithine decarboxylase enzyme activity in L1210 cells after 4 hr of treatment with 1 uM of dose. It is filed as cell-based.

Assay [10] has as its target T2, Spermidine/spermine N(1)-acetyltransferase (SAT) (Mus musculus) (UniProt Q6P8J2+P48026). The experiment in a line: Percent of Spermidine/spermine-N1- acetyltransferase enzyme activity in L1210 cells after 48 hr of treatment with 10 uM of dose. It is filed as cell-based.
A short description of assay [11]: Number of CD-1 mice died in a 6-day course after administration of 200 mg/kg dose of compound; 10/12. It is filed as functional, Mus musculus.
Assay [12] relates to L1210. The experiment in a line: Effect of compound on the level of spermine in polyamine pools of L1210 cells after 48 hr of treatment with 10 uM of dose. It is filed as functional, Mus musculus.
The test system of assay [13] is L1210. Briefly: Effect of compound on the level of spermidine in polyamine pools of L1210 cells after 48 hr of treatment with 100 uM of dose. It is filed as functional, Mus musculus.
Assay [14] relates to L1210. Briefly: Percent of S-adenosyl-methionine decarboxylase enzyme activity in L1210 cells after 6 hr of treatment with 1 uM of dose. Format: cell-based.
Assay [15] is described as follows: Number of CD-1 mice died in a 5-day course after administration of 100 mg/kg dose of compound; 0/5. It is filed as functional, Mus musculus.
The test system of assay [16] is L1210. Briefly: Effect of compound on the level of spermine in polyamine pools of L1210 cells after 48 hr of treatment with 20 uM compound dose. It is filed as functional, Mus musculus.
A short description of assay [17]: Number of CD-1 mice died in a 5-day course after administration of 300 mg/kg dose of compound; 0/5. It is filed as functional, Mus musculus.
In assay [18] the target is T2, Spermidine/spermine N(1)-acetyltransferase (SAT) (Mus musculus). Briefly: Percent of Spermidine/spermine-N1- acetyltransferase enzyme activity in L1210 cells after 48 hr of treatment with 10 uM dose of compound. It is filed as cell-based.
Assay [19] deals with L1210. Briefly: Percent of S-adenosyl-methionine decarboxylase enzyme activity in L1210 cells after 6 hr of treatment with 1 uM dose of compound. It is filed as cell-based.
The test system of assay [20] is L1210. Briefly: Inhibitory concentration of compound against the growth of the L1210 cell line at 48 hr. It is filed as functional, cell-based. The conditions noted are these: Mus musculus, L1210, 48 h.
Assay [21] has as its system L1210. Briefly: Effect of compound on the level of putrescine in polyamine pools of L1210 cells after 48 hr of treatment with 20 uM compound dose. Format: functional, Mus musculus.
Assay [22] can be described thus: Number of CD-1 mice died after administration of 100 mg/kg dose of compound; 0/5. It is filed as functional, Mus musculus.
Assay [23] is described as follows: Number of CD-1 mice died after administration of 200 mg/kg dose of compound; 0/5. Format: functional, Mus musculus.
A short description of assay [24]: Number of CD-1 mice died after administration of 400 mg/kg dose of compound; 0/5. It is filed as functional, Mus musculus.
Assay [25] has as its system L1210. Briefly: Amount of compound present per 10e6 L1210 cells after 48 hr of treatment with 4 uM of it. Format: functional, cell-based. The note with it: Mus musculus.
Assay [26] deals with T1, Ornithine decarboxylase (Mus musculus). The experiment in a line: Percent of ornithine decarboxylase enzyme activity in L1210 cells after 4 hr of treatment with 1 uM dose of compound. Format: cell-based.
The subject of assay [27] is L1210. The experiment in a line: Amount of compound present per 10e6 L1210 cells after 48 hr of treatment with 20 uM of it. It is filed as functional, cell-based. The conditions noted are these: Mus musculus.
For assay [28], the system named is L1210. Briefly: Effect of compound on the level of spermidine in polyamine pools of L1210 cells after 48 hr of treatment with 4 uM compound dose. Format: functional, Mus musculus.
Assay [29] relates to L1210. Briefly: Effect of compound on the level of spermidine in polyamine pools of L1210 cells after 48 hr of treatment with 20 uM compound dose. It is filed as functional, Mus musculus.
Assay [30] concerns L1210. Briefly: Inhibition of transport of [3H]-spermidine by L1210 cells. It is filed as functional, cell-based, Mus musculus.
Assay [31] is described as follows: Number of CD-1 mice died in a 5-day course after administration of 200 mg/kg dose of compound; 0/5. Format: functional, Mus musculus.
The subject of assay [32] is L1210. Briefly: Effect of compound on the level of putrescine in polyamine pools of L1210 cells after 48 hr of treatment with 4 uM compound dose. It is filed as functional, Mus musculus.
Assay [33] deals with L1210. Briefly: Effect of compound on the level of spermine in polyamine pools of L1210 cells after 48 hr of treatment with 4 uM compound dose. Format: functional, Mus musculus.
In assay [34] the test system is L1210. The experiment in a line: Inhibitory concentration of compound against the growth of the L1210 cell line at 96 hr. The conditions noted are these: Mus musculus, L1210, 96 h. Format: functional, cell-based.
Assay [35] in a line: Number of CD-1 mice died after administration of 100 mg/kg dose of compound; 1/5. It is filed as functional, Mus musculus.
A short description of assay [36]: Number of CD-1 mice died in a 5-day course after administration of 10 mg/kg dose of compound; 0/7. It is filed as functional, Mus musculus.
In assay [37] the test system is L1210. Briefly: Effect of compound on the level of spermine in polyamine pools of L1210 cells after 48 hr of treatment with 20 uM of dose. It is filed as functional, Mus musculus.
In assay [38] the test system is L1210. Briefly: Amount of compound present per 10e6 L1210 cells after 48 hr of treatment with 20 uM of dose. Format: functional, cell-based. The conditions noted are these: Mus musculus.
Assay [39] has as its system L1210. Briefly: Effect of compound on the level of putrescine in polyamine pools of L1210 cells after 48 hr of treatment with 20 uM of dose. It is filed as functional, Mus musculus.
Assay [40] is described as follows: Number of CD-1 mice died in a 5-day course after administration of 75 mg/kg dose of compound; 0/5. Format: functional, Mus musculus.
Assay [41] in a line: Number of CD-1 mice died in a 5-day course after administration of 25 mg/kg dose of compound; 0/7. Format: functional, Mus musculus.
Assay [42] is described as follows: Number of CD-1 mice died after administration of 200 mg/kg dose of compound; 5/5. It is filed as functional, Mus musculus.
The test system of assay [43] is L1210. The experiment in a line: Effect of compound on the level of spermidine in polyamine pools of L1210 cells after 48 hr of treatment with 20 uM of dose. It is filed as functional, Mus musculus.
Assay [44] is described as follows: Number of CD-1 mice died in a 5-day course after administration of 50 mg/kg dose of compound; 0/7. Format: functional, Mus musculus.

T2 sequence (P48026 whole entry, looked up): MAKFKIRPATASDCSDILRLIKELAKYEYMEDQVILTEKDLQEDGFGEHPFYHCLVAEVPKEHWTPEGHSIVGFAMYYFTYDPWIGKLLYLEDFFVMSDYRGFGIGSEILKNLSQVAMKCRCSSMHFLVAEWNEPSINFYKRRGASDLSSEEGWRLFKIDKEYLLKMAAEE
T2 sequence (Q6P8J2 whole entry, looked up): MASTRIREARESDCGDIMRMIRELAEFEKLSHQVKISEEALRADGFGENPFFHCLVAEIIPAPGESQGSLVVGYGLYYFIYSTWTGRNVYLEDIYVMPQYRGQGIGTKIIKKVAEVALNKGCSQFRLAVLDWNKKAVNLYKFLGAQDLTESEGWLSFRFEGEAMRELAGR

What is called Ki is a dissociation constant, usually derived from enzyme kinetics or from competition with a known ligand. Higher therefore signals lower affinity. In the assay with L1210 [1], `CCNCCCNCCCNCCCNCC` [BIS(ETHYL)NORSPERMINE] yielded a Ki of 7 µM. The Control in the assay with L1210 [2] is 0%; in the assay on L1210 [3], 30%; in the assay with L1210 [4], 30%; in the assay on L1210 [7] it was 14%; in assay [9], 7%; in assay [10] it was 3880%. Besides, the Control is 31% in the assay on L1210 [12], 6% in the assay on L1210 [13] and 42% in the assay with L1210 [14]. Moreover, the “No. of deaths/mice injected” value in [5] was 5; in assay [11], 10. The Concentration is 1.59 nM with L1210 [6] and 2.44 nM in the assay with L1210 [8].
Broadly, the IC50 is the concentration at which inhibition is half-maximal. A low value points to higher potency. On to `CCNC[C@H](O)CNCCCNC[C@@H](O)CNCC1CC1`, for which the “No. of deaths/mice injected” value in assay [15], in [17], in [22], in [23], in assay [24] and in assay [31] was 0 in each case. In addition, the Control came to 123% in the assay on L1210 [16]; 2500% in [18]; 59% with L1210 [19]; 20% in the assay on L1210 [21]; 37% in assay [26]; 48% in the assay on L1210 [28]. In addition, the values for the Control with L1210 [29], in the assay with L1210 [32] and with L1210 [33] were 32%, 43% and 119%, respectively. The IC50 with L1210 [20] was 4.5 µM; with L1210 [34] it was 0.97 µM. Also, the Amount (nmol/10^6 cells) in the assay with L1210 [25] is 1.94; in the assay on L1210 [27], 3.05. In the assay on L1210 [30], this molecule gave an inhibition constant (Ki) of 40 µM.
`CCNC[C@H](O)CNCCCNC[C@@H](O)CNCC` yielded a Control in [9] of 61%.
In the case of `CCNCCCNCCCNCCCNCC1CC1`, the “No. of deaths/mice injected” value was found to be 0 in assay [15]; 1 in assay [35]; 0 in assay [36]; 0 in assay [40]; 0 in assay [41]; 5 in [42]. In assay [44], the “No. of deaths/mice injected” value was 0. In addition, the inhibitory constant (Ki) with L1210 [1] was determined as 13 µM. Moreover, the Control in the assay on L1210 [2] turned out to be 13%; with L1210 [37], 66%; in the assay with L1210 [39], 22%; in the assay with L1210 [4], 56%; in [9], 26%; in assay [10] it was 3260%. In addition, the Control in the assay with L1210 [13] was 16%; in the assay on L1210 [43], 25%; in the assay on L1210 [14], 48%. Also, the Concentration in the assay with L1210 [38] is 2.17 nM; with L1210 [8], 2.59 nM. The IC50 in the assay with L1210 [20] was 16 µM; in the assay on L1210 [34], 0.55 µM.
Molecule `CCNC[C@@H](O)CNCCCNC[C@H](O)CNCC` gave a Control in assay [9] of 35%.
